Values after ≈ are worked out from the molar mass of the structure shown.
Legend:
human erythrocytes [1] = test: Hemolytic activity (MHC), Protocol B, 18 hours; conditions: maximal peptide concentration showing no hemolysis after 18 hours, hRBC, Table 14
Experimental: In order to evaluate the biological activities of the D-enantiomeric peptides, namely D-NAL and D-NKD, the hemolytic activity of the peptides against human erythrocytes was determined as the maximal peptide concentration that produces no hemolysis after 18 hours of incubation at 37° C.
(§1) Measurement of Hemolytic Activity—Protocol A: Peptide samples were added to 1% human erythrocytes in phosphate buffered saline (0.08M NaCl; 0.043M Na2PO4; 0.011M KH2PO4) and reactions were incubated at 37° C. for 12 hours in microtiter plates. Peptide samples were diluted 2 fold in order to determine the concentration that produced no hemolysis. […] Hemoglobin release was determined spectrophotometrically at 562 nm. The hemolytic titer was the highest 2-fold dilution of the peptide that still caused release of hemoglobin from erythrocytes. The control for no release of hemoglobin was a sample of 1% erythrocytes without any peptide added. […] Peptide samples were diluted 2 fold in order to determine the concentration that produced no hemolysis. […] Hemoglobin release was determined spectrophotometrically at 570 nm. The hemolytic titer was the highest 2-fold dilution of the peptide that still caused release of hemoglobin from erythrocytes. The control for no release of hemoglobin was a sample of 1% erythrocytes without any peptide added.

[2] = tested on: Pseudomonas aeruginosa strains; conditions: for MIC (μg/ml) CP 204: Pseudomonas aeruginosa clinical isolate CP 204; for MIC (μg/ml) M 2: Pseudomonas aeruginosa clinical isolate M 2; for MIC (μg/ml) PA 14: Pseudomonas aeruginosa clinical isolate PA 14; for MIC (μg/ml) PAK: Pseudomonas aeruginosa clinical isolate PAK; for MIC (μg/ml) PAO 1: Pseudomonas aeruginosa clinical isolate PAO 1; for MIC (μg/ml) WR 5: Pseudomonas aeruginosa clinical isolate WR 5; for MIC (μg/ml) GM: geometric mean of the MIC values for the 6 Pseudomonas aeruginosa clinical isolates
Experimental: Pseudomonas aeruginosa strains used in this study are a diverse group of clinical isolates from different places in the world. […] The geometric mean MIC values from six Pseudomonas aeruginosa strains were calculated to provide an overall evaluation of antimicrobial activity of these peptides against Pseudomonas aeruginosa. Fold improvement was calculated by comparing the geometric mean MIC value of each peptide to that of the parent peptide V681.
Measurement of Antimicrobial Activity—Minimal inhibitory concentrations (MICs) were determined using a standard microtiter dilution method in LB (Luria-Bertani) no-salt medium (10 g of tryptone and 5 g of yeast extract per liter). Briefly, cells were grown overnight at 37° C. in LB and diluted in the same medium. […] Plates were incubated at 37° C. for 24 hours and MICs determined as the lowest peptide concentration that inhibited growth. Alternatively, minimal inhibitory concentrations were determined using a standard microtiter dilution method in a Mueller-Hinton (MH) medium. Briefly, cells were grown overnight at 37° C. in MH broth and diluted in the same medium. […] Plates were incubated at 37° C. for 24 hours and MICs determined as the lowest peptide concentration that inhibited growth. However, for MIC determination of Pseudomonas aeruginosa clinical isolates, brain heart infusion (BH1) medium was used instead of MH broth. In addition, the bacteria were diluted to a final inoculum of 1×10^6 colony-forming units/ml.
For the Leu-substituted peptides, the hemolytic activity against human erythrocytes was determined as the maximal peptide concentration that produces no hemolysis after 18 hours of incubation at 37° C. Antimicrobial activity of the peptides was determined on a diverse group of Pseudomonas aeruginosa clinical isolates. […] The geometric mean MIC values from six Pseudomonas strains in Table 14 were calculated to provide an overall evaluation of antimicrobial activity of the peptides with different hydrophobicities.

[3] = Circular dichroism spectroscopy of helical structure (benign buffer and 50% TFE); type: physicochemical; conditions: 25° C.
Experimental: To determine the secondary structure of peptides in different environments, circular dichroism (CD) spectra of the peptide analogs were measured under physiologically related pH and ionic strength (100 mM KCl, 50 mM aq. PO4, pH 7 referred to as benign conditions) and also in 50% TFE to mimic the hydrophobic environment of the membrane. […] On the non-polar face, the native L-Val residue was critical in maintaining α-helical structure. […] Even the substitution with L-Ala, which is known to have the highest α-helical propensity of all 20 amino acids (34), could not stabilize the α-helical structure. […] It is noteworthy that, on the non-polar face, the magnitude of the helical content of L-peptides in benign buffer was related to the hydrophobicity of the substituting amino acids, i.e., NLL>NVL>NAL>NSL, NKL, again showing the importance of hydrophobicity on the non-polar face in maintaining the α-helical structure. […] However, whether L- or D-substitutions were made on the non-polar face, high helical structure could be induced by the hydrophobic environment of 50% TFE, a mimic of the membrane's hydrophobicity and α-helix inducing ability (Table 3).
To determine the secondary structure of the D-enantiomeric peptides in different environments, CD spectra of the peptide analogs were measured under benign conditions (100 mM KCl, 50 mM KH2PO4/K2HPO4, pH 7.4, referred to as KP buffer) and also in 50% trifluoroethanol (TFE) to mimic the hydrophobic environment of the membrane. […] However, in the presence of 50% TFE, all three L-peptides were fully folded α-helical structures with similar ellipticities and helicity (Table 4).
Characterization of Helical Structure—The mean residue molar ellipticities of peptides were determined by circular dichroism (CD) spectroscopy, using a Jasco J-720 spectropolarimeter (Jasco, Easton, Md.), at 25° C. under benign conditions (50 mM KH2PO4/K2HPO4/100 mM KCl, pH 7), as well as in the presence of an α-helix inducing solvent, 2,2,2-trifluoroethanol (TFE) (50 mM KH2PO4/K2HPO4/100 mM KCl, pH 7 buffer/50% TFE). A 10-fold dilution of a ˜500 μM stock solution of the peptide analogs was loaded into a 0.02 cm fused silica cell and its ellipticity scanned from 190 to 250 nm. The values of molar ellipticities of the peptide analogs at a wavelength of 222 nm were used to estimate the relative α-helicity of the peptides.

[4] = RP-HPLC temperature profiling (hydrophobicity and self-association/dimerization parameter PA); type: physicochemical
Experimental: The retention time data for the peptides is shown in Table 5 which records retention times at 5° C., the maximal retention times and retention times at 80° C. during the temperature profiling. Temperatures of 5° C. and 80° C. were the lower and upper temperature limits of temperature profiling in RP-HPLC, representing dimerization of the peptides at 5° C. and the monomerization of peptides at 80° C. due to dissociation of the dimers. The maximal retention times represent the threshold points at which peptides transform from dimeric to monomeric form. Among the non-polar face substituted peptides, peptides with more hydrophobic substitutions (whether L- or D-amino acid substitutions) were more retained during RP-HPLC, i.e., peptides were eluted in the order of Lys, Gly, Ser, Ala, Val and Leu (Table 5). In addition, on the non-polar face, the L-analogs were always more retained than the D-diastereomers (Table 5, FIG. 5). […] In contrast, on the polar face, the elution order of peptides was not correlated with the order of amino acid side-chain hydrophobicity, e.g., PAL and PSL were more retained than PVL (Table 5); PSD was the most retained peptide among the D-amino acid substituted analogs on the polar face (Table 5).
The ability of the D-peptides to self-associate was determined by RP-HPLC temperature profiling. […] As expected, L- and D-peptide enantiomers were totally inseparable over this temperature range, since each pair of peptides is identical in sequence and must adopt identical conformations on interacting with the reversed-phase matrix, whether in an all-L- or all-D-conformation. RP-HPLC retention behavior has been frequently utilized to represent overall peptide hydrophobicity (53, 26). In the present study, the hydrophobicity of the three peptide pairs is in the order V681/D-V681>[…]>NKL/D-NKD (Table 4), which agrees with the change in hydrophobicity of the substitutions at position 13 in order of the most hydrophobic to the least hydrophobic amino acid residue (Val in V681>Ala in NA>Lys in NK) (54). […] For example, the retention times of peptides V681/D-V681 increase with increasing temperature (up to ˜30° C.) followed by a retention time decrease with a further temperature increase. […] Since peptide C is a monomeric random coil peptide in both aqueous and hydrophobic media, its retention behavior over the temperature range 5° C. to 80° C. represents only general temperature effects on peptide retention behavior, i.e., a linear decrease in peptide retention time with increasing temperature due to greater solute diffusivity and enhanced mass transfer between the stationary and mobile phases at higher temperatures (55). Thus, after normalization to the retention times of peptide C, the retention behavior of the peptides represents only peptide self-association ability. Note that the higher the PA value, the greater the self-association ability. […] From Table 4, it is also clear that the peptide retention times at 80° C. are dramatically lower than those at 5° C.
Elution times during RP-HPLC have frequently been utilized as a measure of relative hydrophobicity of peptide analogs (26, 31). In the current study, peptide analogs differed only by a single amino acid substitution on either the non-polar face or the polar face of V681; thus, the retention time data in Table 5 can be considered to reflect the hydrophobicity difference between peptide analogs. In order to more easily visualize the variation in hydrophobicity of the peptide analogs, the retention time data in Table 5 were normalized relative to that of the native peptide V681 at 5° C. and 80° C., respectively. Hydrophobicity relative to the native peptide V681 indicates an increase or decrease of the apparent peptide hydrophobicity with the different amino acid substitutions on the polar or non-polar face. […]

human erythrocytes [5] = test: Hemolytic activity (MHC), Protocol A, 12 hours; conditions: incubation for 12 hours at 37° C. (Tables 7 and 8)
Experimental: as §1

Row | Molecule | Hemolytic activity MHC (human erythrocytes [1]) [µg/mL] | MIC (μg/ml) CP 204 [2] [µg/mL] | MIC (μg/ml) M 2 [2] [µg/mL] | MIC (μg/ml) PA 14 [2] [µg/mL] | MIC (μg/ml) PAK [2] [µg/mL] | MIC (μg/ml) PAO 1 [2] [µg/mL] | MIC (μg/ml) WR 5 [2] [µg/mL] | MIC (μg/ml) GM [2] [µg/mL] | % helix 50% TFE ([3]; 50% TFE, relative to NAL in 50% TFE) [%] | [θ]222 Benign ([3]; benign buffer (100 mM KCl, 50 mM PO4 pH 7.0)) | [θ]222 50% TFE ([3]; benign buffer diluted 1:1 (v/v) with TFE) | % helix Benign ([3]; benign buffer, relative to NAL in 50% TFE) [%] | tR (min) 5° C. ([4]; RP-HPLC retention time at 5° C. during temperature profiling (measure of hydrophobicity)) [min] | tR (min) 80° C. ([4]; RP-HPLC retention time at 80° C. during temperature profiling) [min] | tR (min) Max ([4]; maximal RP-HPLC retention time during temperature profiling 5-80° C.) [min] | PA (min) association parameter ([4]; maximal retention time difference relative to control peptide C within 5-80° C.) [min] | ΔtR (X-PSL) (min) 5° C. ([4]; polar face substitutions, retention time difference relative to native peptide V681 (PSL) at 5° C., relative hydrophobicity) [min] | ΔtR (X-PSL) (min) 80° C. ([4]; polar face substitutions, retention time difference relative to native peptide V681 (PSL) at 80° C., relative hydrophobicity) [min] | minimal hemolytic concentration (MHC) (human erythrocytes [5]) [µg/mL]
1 | Ac-KWKSFLKTFKSAKKTVLHTALKLISS-NH2 [Peptide A23L] | 62.5 | 15.6 | 31.3 | 31.3 | 62.5 | 31.3 | 62.5 | 35.1 | – | – | – | – | – | – | – | – | – | – | –
2 | Ac-KWKSFLKTFKVAVKTVLHTALKAISS-NH2 [PVL] | – | – | – | – | – | – | – | – | 80 | −7,550 deg · cm^2 · dmol^−1 | −23,050 deg · cm^2 · dmol^−1 | 26 | 47.83 | 46.18 | 49.93 | 3.91 | -0.27 | 0.35 | 7.8
3 | CC[C@H](C)[C@H](NC(=O)[C@H](CC(C)C)NC(=O)[C@H](CCCCN)NC(=O)[C@H](CC(C)C)NC(=O)[C@H](C)NC(=O)[C@@H](NC(=O)[C@H](Cc1c[nH]cn1)NC(=O)[C@H](CC(C)C)NC(=O)[C@@H](NC(=O)[C@@H](NC(=O)[C@H](CCCCN)NC(=O)[C@H](CCCCN)NC(=O)[C@H](CC(C)C)NC(=O)[C@H](CO)NC(=O)[C@H](CCCCN)NC(=O)[C@H](Cc1ccccc1)NC(=O)[C@@H](NC(=O)[C@H](CCCCN)NC(=O)[C@H](CC(C)C)NC(=O)[C@H](Cc1ccccc1)NC(=O)[C@H](CO)NC(=O)[C@H](CCCCN)NC(=O)[C@H](Cc1c[nH]c2ccccc12)NC(=O)[C@H](CCCCN)NC(C)=O)[C@@H](C)O)[C@@H](C)O)C(C)C)[C@@H](C)O)C(=O)N[C@@H](CO)C(=O)N[C@@H](CO)C(N)=O [A12L/A23L] | 15.6 | 7.8 (≈ 2.54 µM) | 31.3 (≈ 10.2 µM) | 62.5 (≈ 20.3 µM) | 15.6 (≈ 5.07 µM) | 15.6 (≈ 5.07 µM) | 250.0 (≈ 81.3 µM) | 31.2 (≈ 10.1 µM) | – | – | – | – | – | – | – | – | – | – | –
